Measured values from patent US20030207843A1, “Treatment of drug-resistant human immunodeficiency virus infection” (priority 1999, published 2003).
“And” between values parts separate entries of the source, which are not always exact repeats. Equal values may be shown once. Read-outs that look alike come from different tables or passages of the source.

Experiments:
Type in all cases: cell-based
[1] = tested on: HIV-1LAI L214F; assay: p24 reduction assay in MT-2 cells, L214F; conditions: Table 8
Procedure: (§1) Cells. MT-2 cells (AIDS Research and Reference Reagent Program, National Institute of Allergy and Infectious Diseases, National Institutes of Health) were maintained in RPMI 1640 supplemented with 10% fetal bovine serum (FBS; JRH Biosciences, Lenexa, Kans.), 10 mM HEPES buffer, 50 IU/ml penicillin and 50 μg/ml streptomycin.
(§2) Antiviral Susceptibility Assays. The antiviral activity of each compound was determined by inoculating MT-2 cells with HIV-1LAI at a multiplicity of infection (MOI) of 0.01 TCID50/cell, followed by incubation in the presence of three-fold serial drug dilutions (3 wells per dilution) (see Mellors, et. al., Antimicrob. Agents Chemother. 39:1087-1092). Five or seven days after infection, culture supernatants were harvested, lysed with 0.5% triton-X 100 and assayed for p24 antigen concentration using a commercial ELISA assay (DuPont, NEN Products, Wilmington, Del.). The antiviral activity of the compounds is expressed as the IC50, which is the concentration required to inhibit 50% of p24 antigen production. The fold-resistance of a test virus is calculated by dividing the IC50 of the test virus by the IC50 of the HIV-1LAI control virus.
(§3) Generation of Mutant Recombinant HIV-1. […]
(§4) Recombinant viruses containing the mutations selected by invention compounds were also evaluated for their susceptibility to AZT, as shown in Table 8.

[2] = tested on: HIV-1LAI M164I/4XAZT; assay: p24 reduction assay in MT-2 cells, M164I/4XAZT; conditions: Table 8
Procedure: as §1, §2, §3, §4

[3] = tested on: HIV-1LAI M164I/L214F; assay: p24 reduction assay in MT-2 cells, M164I/L214F
Procedure: as §1, §2
(§5) Generation of Mutant Recombinant HIV-1. HIV-1 containing the desired mutations were generated by oligonucleotide directed mutagenesis (Altered Sites II, Promega) as previously described (Mellors, et. al., Molecular Pharm. 41:446-451). After mutagenesis, mutant RT was subcloned into the pxxHIV-1LAI cloning vector using the silent XmaI and XbaI restriction sites located at the 5′ and 3′ ends of RT. Clones were DNA sequenced to verify the presence of the desired mutation(s) and electroporated into MT-2 cells as described above to generate infectious mutant recombinant HIV-1.
(§6) Mutant RT was generated via oligonucleotide-directed mutagenesis and ligated into the pXXHIV-1LAI cloning vector. Cloning was facilitated by the presence of two silent restriction sites at the 5′ and 3′ ends (Xma1 and Xba1, respectively) of pXXHIV-1LAI RT. Infectious mutant recombinant HIV-1 was generated by electroporating MT-2 cells with mutated pXXHIV-1LAI clones. The presence of the desired mutations was verified by DNA sequencing.
DNA sequencing of the RT gene (amino acid (AA) 1 to 350) from MB-PFA resistant virus identified three mutations: V75L, M164I and L214F. Recombinant viruses encoding the V75L, M164I and L214F mutations were constructed and tested for susceptibility to MB-PFA.
as §4

[4] = tested on: HIV-1LAI S117T/4XAZT; assay: p24 reduction assay in MT-2 cells, S117T/4XAZT; conditions: Table 8
Procedure: as §1, §2, §3, §4

[5] = tested on: HIV-1LAI M164I; assay: p24 reduction assay in MT-2 cells, M164I; conditions: Table 8
Procedure: as §1, §2, §3, §4

[6] = tested on: HIV-1LAI S117T; assay: p24 reduction assay in MT-2 cells, S117T
Procedure: as §1, §2, §5, §6
DNA sequencing identified two mutations in RT: S117T and L214F.
as §4

[7] = tested on: HIV-1LAI S117T/L214F; assay: p24 reduction assay in MT-2 cells, S117T/L214F; conditions: Table 8
Procedure: as §1, §2, §5
Mutant RT was generated via oligonucleotide-directed mutagenesis and ligated into the pXXHIV-1LAI cloning vector. […]
as §4

[8] = tested on: HIV-1LAI W88G/L214F; assay: p24 reduction assay in MT-2 cells, W88G/L214F
Procedure: as §1, §2, §5, §6
EB-PFA resistant virus was selected a second time after 15 passages. This virus also contained the mutations W88G and L214F.
as §4

[9] = tested on: HIV-1LAI selected with EB-PFA, passage 15 (W88G, L214F); assay: Susceptibility of virus selected in vitro with EB-PFA
Procedure: as §2
Selection of Resistant Viruses. […] Viral cytopathic effects (CPE) were monitored daily. […] The passaged virus was monitored regularly for a reduction in susceptibility to the compounds by determining the EC50 relative to unpassaged HIV-1LAI (Mellors, et. al., Antimicrob. Agents Chemother. 39:1087-1092). […]

[10] = tested on: recombinant HIV-1 with V75L alone or in combination with L214F or M164I; assay: p24 reduction assay in MT-2 cells, V75L recombinants; conditions: Example 6
Procedure: as §2
as §5, with “Clones were DNA sequenced to verify the presence of the desired mutation(s) and electroporated into MT-2 cells as described above to generate infectious mutant recombinant HIV-1.” left out

[11] = tested on: panel of drug resistant HIV-1 viruses; assay: p24 reduction assay, panel of drug resistant HIV-1 viruses (summary); conditions: Human immunodeficiency virus 1, read-out: EC50 values (range over strains)
Procedure: The μM concentration required to produce 50% inhibition of replication of the drug-resistant strain of HIV (EC50) was determined as shown in Table 1. Drug effects were measured by assaying p24 (a viral protein) in the culture medium.

Compound `Cc1cn([C@H]2C[C@H](N=[N+]=[N-])[C@@H](CO)O2)c(=O)[nH]c1=O` [AZT, 3′-Azido-3′-deoxythymidine] has an EC50 ([1]; Human immunodeficiency virus 1, MT2, L214F, read-out: AZT EC50) of 35 ± 33 nM, a Fold resistance ([1]; L214F relative to wild type virus) of 1.7 and an EC50 ([2]; Human immunodeficiency virus 1, MT2, M164I/4XAZT, read-out: AZT EC50) of 43 ± 22 nM. It also gave a Fold resistance ([2]; M164I/4XAZT relative to wild type virus) of 1.1, an EC50 ([3]; Human immunodeficiency virus 1, MT2, Table 8, M164I/L214F, read-out: AZT EC50) of 8 ± 3 nM and a Fold resistance ([3]; Table 8, M164I/L214F relative to wild type virus) of 0.4. It also gave an EC50 ([4]; Human immunodeficiency virus 1, MT2, S117T/4XAZT, read-out: AZT EC50) of 40 ± 6 nM, a Fold resistance ([4]; S117T/4XAZT relative to wild type virus) of 1.4 and an EC50 ([5]; Human immunodeficiency virus 1, MT2, M164I, read-out: AZT EC50) of 12 ± 4 nM. It also gave a Fold resistance ([5]; M164I relative to wild type virus) of 0.6, an EC50 ([6]; Human immunodeficiency virus 1, MT2, Table 8, S117T, read-out: AZT EC50) of 17 ± 7 nM and a Fold resistance ([6]; Table 8, S117T relative to wild type virus) of 0.8. For the same compound, the EC50 ([7]; Human immunodeficiency virus 1, MT2, S117T/L214F, read-out: AZT EC50) was 22 ± 10 nM, the Fold resistance ([7]; S117T/L214F relative to wild type virus) was 1.1 and the EC50 ([8]; Human immunodeficiency virus 1, MT2, Table 8, W88G/L214F, read-out: AZT EC50) was 15 ± 15 nM. The Fold resistance ([8]; Table 8, W88G/L214F relative to wild type virus) was 0.7.
With `CCCCCCCCCCCCCCCCCCOC[C@H](COP(=O)(O)C(=O)O)OCC` [EB-PFA, 1-O-octadecyl-2-O-ethyl-sn-glycero-3-PFA] the Fold resistance ([8]; Example 6, recombinant virus W88G plus L214F) was 15.5 fold, the EC50 ([8]; Example 6, recombinant virus W88G plus L214F, read-out: EC50) was 9100 nM and the EC50 ([9]; Table 6, passage 15 (W88G, L214F)) was 3700 nM. For the same compound, the Fold resist. ([9]; Table 6, passage 15, relative to passage 0) was 41 and 41.1.
`CCCCCCCCCCCCCCCCCCOC[C@H](COP(=O)(O)C(=O)O)OC` [MB-PFA, 1-O-octadecyl-2-O-methyl-sn-glycero-3-PFA] gave a Fold resistance ([3]; Example 6, recombinant virus with M164I and L214F) of 9.3 fold, an EC50 ([3]; Example 6, recombinant virus with M164I and L214F, read-out: EC50) of 8100 nM and a Fold resistance [10] of less than 3 fold.
Work on `O=C(O)P(=O)(O)O` [PFA, phosphonoformate, reference compound] yielded a Fold resistance ([6]; {}) of 4.7 fold and an EC50 [11] of 7600 to 37400 nM.
